From article PMC12280925, “Structure-based discovery of positive allosteric modulators of the A1 adenosine receptor” (Proceedings of the National Academy of Sciences of the …, 2025)
Residue numbers refer to the chain shown, from its start. Where two headings read alike, the source gives them in different places.

How the values were obtained:
[1] = system: A1R-mediated rat atrial beat rate; assay: Isolated rat atria: NECA-mediated decrease in contractile rate; conditions: approximate, read-out: potency (EC50) for inhibition in rat atrial beat rate
Description: Isolated rat atrial experiments were performed as previously described ([53]). Briefly, 10 to 16 wk old male Sprague Dawley rats were anesthetized with xylazine/ketamine and the chest cavity of the rat was opened to fully expose the heart, which was rapidly removed and placed in Krebs–Henseleit solution. The heart was cut transversely below the right and left atria to remove the ventricles, and the remaining […] were trimmed carefully. Atria was then mounted in an organ bath at 37 °C, bubbled with 5% CO2/95% O2, and allowed to contract spontaneously. The rate of atrial contraction was measured using a force transducer connected to a PowerLab data acquisition system. […] All experiments involving animals were approved by the Monash Institute of Pharmaceutical Sciences Animal Ethics Committee under project number 20213.

A1R (A1R-FlpInCHO cells) [2] = biological target: T1, A1R (A1R-FlpInCHO cells) (Homo sapiens, UniProt P30542); assay: Whole-cell [3H]DPCPX competition binding: NECA affinity in absence or presence of compound; conditions: 30 μM compound; for effect on NECA affinity (pKI): [3H]DPCPX competition binding, A1R-FlpINCHO cells; for effect on [3H]DPCPX binding (1 nM): absence of orthosteric agonist
T1 sequence (P30542 1-326): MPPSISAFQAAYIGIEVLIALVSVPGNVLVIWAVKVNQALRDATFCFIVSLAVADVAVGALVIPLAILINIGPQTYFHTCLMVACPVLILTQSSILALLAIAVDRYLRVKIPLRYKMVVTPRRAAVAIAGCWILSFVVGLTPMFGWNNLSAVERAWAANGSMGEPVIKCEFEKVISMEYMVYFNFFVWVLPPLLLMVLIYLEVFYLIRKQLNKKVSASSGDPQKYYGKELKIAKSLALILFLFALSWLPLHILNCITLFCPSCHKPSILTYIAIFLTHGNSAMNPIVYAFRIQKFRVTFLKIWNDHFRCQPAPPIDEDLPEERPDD
Description: [^3H]DPCPX (8-cyclopentyl-1,3-dipropylxanthine, [dipropyl-2,3-^3H(N)]) whole-cell binding assays were performed on FlpINCHO cells stably expressing either WT (nontagged or 3xHA-tagged) or mutant 3xHA-A1R. Cells were seeded into a transparent 96-well plate at 40,000 cells/well in DMEM containing 10% FBS. Following 8 h incubation in a humidified environment at 37 °C in 5% CO2, cells were washed and maintained in serum-free DMEM for approximately 18 h at 37 °C in 5% CO2. […] Assays were terminated by washing twice with 100 μL/well cold phosphate-buffered saline, followed by the addition of 100 μL OptiPhase Supermix™ scintillation cocktail and bound radioactivity measured using a MicroBeta^2 ™ plate counter (PerkinElmer).
[^3H]DPCPX competition binding curves were fitted to a one-site inhibitory mass action equation:[1] Y=Bottom+Top-Bottom/1+10^X-LogIC50,
The top and bottom represent the maximal and minimal binding in the presence of the competitive ligand, respectively. Equilibrium dissociation constant (KI) values were subsequently derived from inhibition binding experiments using the Cheng–Prusoff equation:[2] KI=IC50/1+A/KD.

A1R (A1R-FlpInCHO cells) [3] = biological target: T1, A1R (A1R-FlpInCHO cells); assay: Inhibition of forskolin-stimulated cAMP accumulation: NECA potency ± compound and compound alone; assay type: cell-based; conditions: for effect on NECA potency (pEC50): 30 μM compound, inhibition of forskolin-stimulated cAMP accumulation; for allosteric agonism (functional response in the absence of NECA): 30 μM compound alone, 3 μM forskolin-stimulated cAMP accumulation
Description: (§1) FlpInCHO cell lines and cortical neuron cells were seeded into transparent 96-well plates at 20,000 cells/well and incubated for 16 to 20 h in a humidified incubator at 37 °C in 5% CO2. […] Compounds were added at either a single concentration (10 or 30 μM) or a concentration range for full interaction studies (3 to 30 μM), and plates were incubated for 30 to 60 min at 37 °C in a humidified chamber. […] After 30 min incubation at 37 °C, the reaction was terminated by rapid removal of buffer and the addition of 50 μL/well cold ethanol. […] Agonist concentration–response curves were normalized to the response mediated by 3 µM forskolin […].
Response=Basal+Emax-Basal×A/EC50+A,

[4] = biological target: T2, A1R allosteric site (A1R-FlpINCHO cells, wild type) (Homo sapiens, UniProt P30542); assay: Whole-cell [3H]DPCPX interaction binding with NECA, allosteric ternary complex model; conditions: for binding cooperativity with NECA (logα): orthosteric agonist NECA
T2 sequence (P30542 1-326): T1 sequence (P30542 1-326)
Description: Equilibrium binding interaction experiments were fitted to the following allosteric ternary complex model.[3] Y=BmaxA/A+KAKB/αAB+KB1+[I]/KI+[B]/KB+αII[B]/KIKB,
A cooperativity factor α > 1 describes positive cooperativity; a value 0 < α < 1 describes negative cooperativity, and a value of α = 1 describes neutral cooperativity.

A1R (A1R-FlpInCHO cells) [5] = biological target: T1, A1R (A1R-FlpInCHO cells); assay: NECA/allosteric ligand interaction in cAMP accumulation, operational model of allosterism; assay type: cell-based; conditions: for allosteric ligand efficacy (logτB): allosteric agonism in cAMP; for functional cooperativity with NECA (logαβ): cAMP
Description: as §1
[5] E=EmτAAKB+αβ[B]+τB[B]KA^n/AKB+KAKB+[B]KA+α[A][B]^n+τAAKB+αβ[B]+τB[B]KA^n
Orthosteric agonist and allosteric ligand affinity were constrained to values determined from radioligand binding.

A1R S246^6.47A mutant = biological target: T3, A1R S246^6.47A mutant (Homo sapiens, UniProt P30542, S246A); assay: [3H]DPCPX interaction binding at mutant S246A-A1R-FlpINCHO
T3 construct: expressed in transfected cells; host or cells: FlpInCHO cells, stably transfected
T3 sequence (P30542 1-326 S246A): T1 sequence (P30542 1-326) with S246A

A1R G279^7.44A mutant = biological target: T4, A1R G279^7.44A mutant (Homo sapiens, UniProt P30542, G279A); assay: [3H]DPCPX interaction binding at mutant G279A-A1R-FlpINCHO
T4 construct: expressed in transfected cells; host or cells: FlpInCHO cells, stably transfected
T4 sequence (P30542 1-326 G279A): T1 sequence (P30542 1-326) with G279A

A2AR = biological target: T5, A2AR (Homo sapiens, UniProt P29274); assay: cAMP accumulation in A2AR FlpINCHO cells (selectivity); assay type: cell-based
T5 construct: expressed in transfected cells; host or cells: FlpInCHO cells, stably transfected

A2BR = biological target: T6, A2BR (Homo sapiens, UniProt P29275); assay: cAMP accumulation in A2BR FlpINCHO cells (selectivity); assay type: cell-based
T6 construct: expressed in transfected cells; host or cells: FlpInCHO cells, stably transfected
T6 sequence (P29275 1-332): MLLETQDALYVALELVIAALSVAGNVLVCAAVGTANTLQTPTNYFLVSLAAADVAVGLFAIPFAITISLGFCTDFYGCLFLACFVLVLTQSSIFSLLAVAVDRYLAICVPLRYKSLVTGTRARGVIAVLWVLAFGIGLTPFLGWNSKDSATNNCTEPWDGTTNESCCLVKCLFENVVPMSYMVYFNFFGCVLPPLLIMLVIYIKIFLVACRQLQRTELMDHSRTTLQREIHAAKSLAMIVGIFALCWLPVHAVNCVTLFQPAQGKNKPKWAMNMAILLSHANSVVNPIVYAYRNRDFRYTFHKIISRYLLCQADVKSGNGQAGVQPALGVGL

A3R = biological target: T7, A3R (Homo sapiens, UniProt P0DMS8); assay: cAMP accumulation in A3R FlpINCHO cells (selectivity); assay type: cell-based
T7 construct: expressed in transfected cells; host or cells: FlpInCHO cells, stably transfected
T7 sequence (P0DMS8 1-318): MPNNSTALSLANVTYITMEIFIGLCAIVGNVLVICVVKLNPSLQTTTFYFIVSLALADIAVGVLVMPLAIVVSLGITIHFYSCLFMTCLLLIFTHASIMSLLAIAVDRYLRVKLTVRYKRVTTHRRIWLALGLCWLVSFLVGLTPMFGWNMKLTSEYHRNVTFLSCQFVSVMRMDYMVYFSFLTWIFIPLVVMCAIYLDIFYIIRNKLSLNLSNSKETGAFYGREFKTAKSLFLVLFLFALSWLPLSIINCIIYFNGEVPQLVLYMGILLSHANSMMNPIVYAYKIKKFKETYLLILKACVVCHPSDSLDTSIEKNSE

M2 receptor (M2R) = biological target: T8, M2 receptor (M2R) (Homo sapiens, UniProt P08172); assay: cAMP accumulation in M2 receptor FlpINCHO cells (selectivity); assay type: cell-based; conditions: acetylcholine as agonist
T8 sequence (P08172 1-466): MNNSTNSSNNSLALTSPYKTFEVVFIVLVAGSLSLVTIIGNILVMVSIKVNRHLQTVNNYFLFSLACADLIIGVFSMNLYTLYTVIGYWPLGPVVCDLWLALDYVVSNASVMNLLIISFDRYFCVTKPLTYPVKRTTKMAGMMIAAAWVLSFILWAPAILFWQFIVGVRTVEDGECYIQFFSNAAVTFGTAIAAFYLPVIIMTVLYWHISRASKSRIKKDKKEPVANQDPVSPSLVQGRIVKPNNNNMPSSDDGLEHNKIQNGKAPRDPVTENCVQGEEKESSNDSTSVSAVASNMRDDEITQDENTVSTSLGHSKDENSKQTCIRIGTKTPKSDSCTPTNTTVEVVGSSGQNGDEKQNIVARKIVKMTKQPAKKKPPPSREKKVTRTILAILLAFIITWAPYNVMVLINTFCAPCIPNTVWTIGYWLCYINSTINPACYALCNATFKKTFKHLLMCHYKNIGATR

[6] = system: nontransfected FlpINCHO cells; assay: cAMP accumulation in nontransfected FlpINCHO cells; assay type: cell-based, Chinese hamster; conditions: 10 µM compound
[7] = allosteric ternary complex model

T5 sequence (P29274 whole entry): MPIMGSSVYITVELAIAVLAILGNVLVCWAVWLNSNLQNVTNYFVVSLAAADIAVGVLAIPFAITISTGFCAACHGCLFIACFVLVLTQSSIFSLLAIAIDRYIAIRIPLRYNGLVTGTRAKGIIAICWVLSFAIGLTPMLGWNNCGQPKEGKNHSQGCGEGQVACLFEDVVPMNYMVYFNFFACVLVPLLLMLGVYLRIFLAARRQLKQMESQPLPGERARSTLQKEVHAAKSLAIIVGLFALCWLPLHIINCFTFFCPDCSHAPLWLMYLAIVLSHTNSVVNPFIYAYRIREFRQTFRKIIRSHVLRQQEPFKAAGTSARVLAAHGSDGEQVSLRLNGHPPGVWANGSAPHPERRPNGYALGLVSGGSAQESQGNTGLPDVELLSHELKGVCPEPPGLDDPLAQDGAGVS

Compound: CCNC(=O)[C@H]1O[C@@H](n2cnc3c(N)ncnc32)[C@H](O)[C@@H]1O [NECA, 5′-N-ethylcarboxamidoadenosine]
- EC50 [1]: ~0.13 µM

Compound: CCCc1sc(N)nc1-c1ccc(C)cc1C [compound 2]
- effect on NECA affinity (pKI) (A1R (A1R-FlpInCHO cells) [2]): significantly enhanced
- effect on NECA potency (pEC50) (A1R (A1R-FlpInCHO cells) [3]; A1R-FlpINCHO cells): significantly enhanced

Compound: Nc1nc(-c2cccc3ccccc23)cs1 [compound 12]
- effect on NECA affinity (pKI) (A1R (A1R-FlpInCHO cells) [2]): significantly enhanced
- effect on [3H]DPCPX binding (1 nM) (A1R (A1R-FlpInCHO cells) [2]): modest but significant decrease
- allosteric agonism (functional response in the absence of NECA) (A1R (A1R-FlpInCHO cells) [3]): no significant effect
- effect on NECA potency (pEC50) (A1R (A1R-FlpInCHO cells) [3]; A1R-FlpINCHO cells): significantly enhanced
- Kb ([4]; allosteric ternary complex model, n = 4, read-out: allosteric ligand affinity (pKB) (converted)): 23.4 µM
- binding cooperativity with NECA (logα) [4, 7]: 0.99 ± 0.25
- positive cooperativity between PAM and NECA ([4]; approximate, from logα): ~10 fold
- Kd ([4]; approximate, from pKB, read-out: affinity for the A1R allosteric site): ~25 µM
- allosteric ligand efficacy (logτB) (A1R (A1R-FlpInCHO cells) [5]): −0.65 ± 0.12
- functional cooperativity with NECA (logαβ) (A1R (A1R-FlpInCHO cells) [5]): 0.68 ± 0.10

Compound: Cc1ccc(C(=O)c2c(N)sc(C)c2C)cc1 [compound 20]
- effect on NECA affinity (pKI) (A1R (A1R-FlpInCHO cells) [2]): significantly enhanced
- effect on [3H]DPCPX binding (1 nM) (A1R (A1R-FlpInCHO cells) [2]): modest but significant decrease
- allosteric agonism (functional response in the absence of NECA) (A1R (A1R-FlpInCHO cells) [3]): no significant effect
- effect on NECA potency (pEC50) (A1R (A1R-FlpInCHO cells) [3]; A1R-FlpINCHO cells): significantly enhanced

Compound: Nc1ccc(Cl)cc1C(=O)c1ccc(F)cc1 [compound 22]
- effect on NECA affinity (pKI) (A1R (A1R-FlpInCHO cells) [2]): significantly enhanced

Compound: CCCc1sc(N)nc1-c1ccc(C)c2ccccc12 [compound 54]
- agonism (compound alone) (A1R (A1R-FlpInCHO cells) [3]; A1R-FlpINCHO cells): modest functional response
- binding cooperativity (logα) with NECA ([4]; WT A1R, Table S2): 0.92
- Kb ([4]; allosteric ligand affinity (pKB), allosteric ternary complex model, n = 4): 7.08 µM
- binding cooperativity with NECA (logα) [4, 7]: 1.15 ± 0.10
- Kb ([4]; pKB, WT A1R, mean ± SEM (n), Table S2): 5.62 µM
- allosteric ligand efficacy (logτB) (A1R (A1R-FlpInCHO cells) [5]): −0.37 ± 0.10
- functional cooperativity with NECA (logαβ) (A1R (A1R-FlpInCHO cells) [5]): 0.84 ± 015
- effect of S246^6.47A on affinity or cooperativity (A1R S246^6.47A mutant): did not significantly decrease
- Kb (A1R S246^6.47A mutant; […], Table S2): 5.13 µM
- binding cooperativity (logα) with NECA (A1R S246^6.47A mutant; […], Table S2): 1.10
- effect of G279^7.44A on affinity (A1R G279^7.44A mutant): did not influence
- effect of G279^7.44A on allosteric cooperativity with the orthosteric agonist (A1R G279^7.44A mutant): significantly decreased
- Kb (A1R G279^7.44A mutant; […], Table S2): 2.14 µM
- binding cooperativity (logα) with NECA (A1R G279^7.44A mutant; […], Table S2): -0.05
- effect on NECA potency (A2AR; 10 µM compound, A2AR): no significant effect
- agonism (compound alone) (A2AR; 30 μM, A2AR FlpINCHO cells): no appreciable activity
- effect on NECA potency (A2BR; 10 µM compound, A2BR): no significant effect
- agonism (compound alone) (A2BR; 30 μM, A2BR FlpINCHO cells): no appreciable activity
- effect on NECA potency (A3R; 10 µM compound, A3R): no significant effect
- agonism (compound alone) (A3R; 30 μM, A3R FlpINCHO cells): no appreciable activity
- effect in FlpINCHO cells expressing the M2 receptor (M2 receptor (M2R)): no significant effect
- effect in nontransfected FlpINCHO cells [6]: no significant effect
